Assay results from publication PMC6917776, “Discovery of a chemical probe for PRDM9” (Nature Communications, 2019).
Values joined by “and” are separate entries in the source; they are usually repeats but may differ in a detail not shown here. Equal values may be shown once. Read-outs that look alike come from different tables or passages of the source.

How the values were obtained:
HCC1806 = experiment: CelltiterGlo viability cell assay; assay type: cell-based; settings: up to 30 μM; days 3 and 6; Prdm9 expressing line
Description: (§1) Supplementary Figure 13. […] Viability of
(§2) (a) Multiple Myeloma lines and (b) Breast Cancer cell lines following 3 or 6 days treatment with […]
(§3) manufacturer’s instructions as described in the Supplementary methods. Data are normalized to DMSO control. N=3 biological replicates, +/- SEM. Source data are provided as a Source Data […]
(§4) CelltiterGlo viability cell assay
(§5) Cells were seeded in 96 well plates at per-well densities of 10000 (MDA-MB436, ATCC-HTB130), 15000 (8226, kind gift from Rodger Tiedemann, Princess Margaret Cancer Centre), […]
(§6) kind gift from Rodger Tiedemann, Princess Margaret Cancer Centre) and 50000 (CAL851, kind gift from Mathieu Lupien, Princess Margaret Cancer Centre) and were treated at increasing concentrations of compounds ranging from 0.01 μM to 30 μM and assessed for proliferation using CelltiterGlo (Promega) following manufacturer’s instructions, as readout on days 3 and 6 as indicated. All cell lines were mycoplasma negative, as determined by MycoAlert™ Mycoplasma Detection Kit(Lonza). […]

SKMM2 = experiment: CelltiterGlo viability cell assay; assay type: cell-based; settings: up to 30 μM; days 3 and 6; Prdm9 expressing line
Description: as §1, §2, §3, §4, §5, §6

HCC1143 = experiment: CelltiterGlo viability cell assay; assay type: cell-based; settings: up to 30 μM; days 3 and 6; matched control line
Description: as §1, §2, §3, §4, §5, §6

[1] = target: T1, PRDM9 (amino acids: 195–415) (Homo sapiens, UniProt Q9NQV7); experiment: PRDM9 methyltransferase activity assay (3H-SAM scintillation proximity assay); assay type: biochemical
T1 construct: PRDM9 (amino acids: 195–415)
T1 sequence (Q9NQV7 195-415): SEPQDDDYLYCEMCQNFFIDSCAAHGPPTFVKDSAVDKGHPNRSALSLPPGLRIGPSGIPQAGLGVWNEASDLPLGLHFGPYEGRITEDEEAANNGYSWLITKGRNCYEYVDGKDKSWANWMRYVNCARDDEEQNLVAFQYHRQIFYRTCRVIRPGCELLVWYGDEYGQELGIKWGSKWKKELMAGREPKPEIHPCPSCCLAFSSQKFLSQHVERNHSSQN
Description: Methyltransferase activity assays for PRDM9 (amino acids: 195–415) were performed by monitoring the incorporation of tritium-labeled methyl group from ^3H-SAM to H3 (1–25) peptide using scintillation proximity assay (SPA). The enzymatic reactions were performed at 23 °C with 30 min incubation in 20 mM Tris-HCl (pH 7.5), 5 mM DTT, 0.01% Triton X-100 and 1% DMSO containing 71 μM of SAM (5 μM of ^3H-SAM), 4 μM of biotinylated H3 (1–25) peptide and 5 nM of PRDM9. For PRDM7, reactions were performed at 23 °C with 90 min incubation in 20 mM BTP pH 9.0, 5 mM DTT, 0.01% Triton X-100 and 1% DMSO containing 900 μM of SAM (5 μM of ^3H-SAM), 4 μM of biotinylated H3 (1–25) peptide and 100 nM of enzyme. […] To stop the reactions, 10 μL of 7.5 M guanidine hydrochloride was added to 10 μL of reaction mixture, followed by 60 μL of buffer (20 mM Tris, pH 8.0), mixed, and transferred to a 384-well streptavidin coated Flash-plate. After mixing, the mixtures in Flash-plate were incubated for 2 h, and the CPM counts were measured using TopCount plate reader. All enzymatic reactions were performed in triplicate, and IC50 values were determined by fitting the data to Four Parameter Logistic equation using the GraphPad Prism software.

COc1cc(OC)cc(-c2noc(N3CCN(C)C4(CCN(c5ccnc(C)c5)CC4)C3)n2)c1 [MRK-740]
Effect on proliferation (in words) (HCC1806): did not have any significant effect
Effect on proliferation (in words) (SKMM2): did not have any significant effect
Effect on proliferation (in words) (HCC1143): did not have any significant effect
PRDM9-Activity %, single experiments ([1]; 0.00305176 µM compound, 0.00305176 µM): 94.4267% and 95.25% and 97.1828% and 103.784% and 103.017%
activity at 0.00305176 µM ([1]; 0.00305176 µM compound, n=6, read-out: PRDM9-Activity %, Average): 97.6%
activity at 0.00305176 µM ([1]; 0.00305176 µM compound, read-out: PRDM9-Activity %, single experiments): 91.9%
PRDM9-Activity %, single experiments ([1]; 0.00610352 µM compound, 0.00610352 µM): 85.0663% and 85.348% and 95.7626% and 97.3747% and 91.3487%
activity at 0.00610352 µM ([1]; 0.00610352 µM compound, n=6 MRK-740, n=3 MRK-740-NC, read-out: PRDM9-Activity %, Average): 90%
activity at 0.00610352 µM ([1]; 0.00610352 µM compound, read-out: PRDM9-Activity %, single experiments): 84.8%
PRDM9-Activity %, single experiments ([1]; 0.012207 µM compound, 0.012207 µM): 78.4578% and 80.6028% and 86.1288% and 97.1828% and 87.357%
activity at 0.012207 µM ([1]; 0.012207 µM compound, n=6 MRK-740, n=3 MRK-740-NC, read-out: PRDM9-Activity %, Average): 84.8%
activity at 0.012207 µM ([1]; 0.012207 µM compound, read-out: PRDM9-Activity %, single experiments): 79.3%
PRDM9-Activity %, single experiments ([1]; 0.0244141 µM compound, 0.0244141 µM): 75.966% and 79.6061% and 75.3435% and 72.6952% and 77.5697%
activity at 0.0244141 µM ([1]; 0.0244141 µM compound, n=6 MRK-740, n=3 MRK-740-NC, read-out: PRDM9-Activity %, Average): 75.8%
activity at 0.0244141 µM ([1]; 0.0244141 µM compound, read-out: PRDM9-Activity %, single experiments): 73.4%
PRDM9-Activity %, single experiments ([1]; 0.0488281 µM compound, 0.0488281 µM): 59.9538% and 62.5322% and 63.7138% and 61.8331% and 62.9462%
activity at 0.0488281 µM ([1]; 0.0488281 µM compound, n=6 MRK-740, n=3 MRK-740-NC, read-out: PRDM9-Activity %, Average): 62.6%
activity at 0.0488281 µM ([1]; 0.0488281 µM compound, read-out: PRDM9-Activity %, single experiments): 64.9%
PRDM9-Activity %, single experiments ([1]; 0.0976562 µM compound, 0.0976562 µM): 47.0617% and 46.4983% and 51.163% and 50.5105% and 50.3953%
activity at 0.0976562 µM ([1]; 0.0976562 µM compound, n=6 MRK-740, n=3 MRK-740-NC, read-out: PRDM9-Activity %, Average): 49%
activity at 0.0976562 µM ([1]; 0.0976562 µM compound, read-out: PRDM9-Activity %, single experiments): 48.6%
PRDM9-Activity %, single experiments ([1]; 0.195312 µM compound, 0.195312 µM): 35.2529% and 35.7729% and 39.7252% and 37.4223% and 38.9192%
activity at 0.195312 µM ([1]; 0.195312 µM compound, n=6 MRK-740, n=3 MRK-740-NC, read-out: PRDM9-Activity %, Average): 36.7%
activity at 0.195312 µM ([1]; 0.195312 µM compound, read-out: PRDM9-Activity %, single experiments): 33%
PRDM9-Activity %, single experiments ([1]; 0.390625 µM compound, 0.390625 µM): 22.6425% and 27.2793% and 26.6754% and 26.8289% and 30.4368%
activity at 0.390625 µM ([1]; 0.390625 µM compound, n=6 MRK-740, n=3 MRK-740-NC, read-out: PRDM9-Activity %, Average): 26.6%
activity at 0.390625 µM ([1]; 0.390625 µM compound, read-out: PRDM9-Activity %, single experiments): 25.4%
PRDM9-Activity %, single experiments ([1]; 0.78125 µM compound, 0.78125 µM): 15.1455% and 15.3839% and 20.1505% and 16.3507% and 20.304%
activity at 0.78125 µM ([1]; 0.78125 µM compound, n=6 MRK-740, n=3 MRK-740-NC, read-out: PRDM9-Activity %, Average): 17.5%
activity at 0.78125 µM ([1]; 0.78125 µM compound, read-out: PRDM9-Activity %, single experiments): 17.8%
PRDM9-Activity %, single experiments ([1]; 1.5625 µM compound, 1.5625 µM): 9.274% and 10.0537% and 12.7044% and 15.0841% and 15.1608%
activity at 1.5625 µM ([1]; 1.5625 µM compound, n=6 MRK-740, n=3 MRK-740-NC, read-out: PRDM9-Activity %, Average): 12%
activity at 1.5625 µM ([1]; 1.5625 µM compound, read-out: PRDM9-Activity %, single experiments): 9.56%
PRDM9-Activity %, single experiments ([1]; 3.125 µM compound, 3.125 µM): 7.757% and 8.32% and 10.555% and 9.672% and 9.096%
activity at 3.125 µM ([1]; 3.125 µM compound, n=6 MRK-740, n=3 MRK-740-NC, read-out: PRDM9-Activity %, Average): 8.8%
activity at 3.125 µM ([1]; 3.125 µM compound, read-out: PRDM9-Activity %, single experiments): 7.39%
PRDM9-Activity %, single experiments ([1]; 6.25 µM compound, 6.25 µM): 4.5935% and 6.024% and 7.753% and 9.173% and 6.448%
activity at 6.25 µM ([1]; 6.25 µM compound, n=6 MRK-740, n=3 MRK-740-NC, read-out: PRDM9-Activity %, Average): 6.57%
activity at 6.25 µM ([1]; 6.25 µM compound, read-out: PRDM9-Activity %, single experiments): 5.42%
PRDM9-Activity %, single experiments ([1]; 12.5 µM compound, 12.5 µM): 3.185% and 3.8568% and 5.834% and 4.491% and 4.606%
activity at 12.5 µM ([1]; 12.5 µM compound, n=6 MRK-740, n=3 MRK-740-NC, read-out: PRDM9-Activity %, Average): 4.37%
activity at 12.5 µM ([1]; 12.5 µM compound, read-out: PRDM9-Activity %, single experiments): 4.27%
PRDM9-Activity %, single experiments ([1]; 25 µM compound, 25 µM): 2.7301% and 2.167% and 2.752% and 4.337% and 5.373% and 4.529%
activity at 25 µM ([1]; 25 µM compound, n=6 MRK-740, n=3 MRK-740-NC, read-out: PRDM9-Activity %, Average): 3.65%
PRDM9-Activity %, single experiments ([1]; 50 µM compound, 50 µM): 2.405% and 1.7984% and 3.488% and 4.913% and 5.45% and 4.529%
activity at 50 µM ([1]; 50 µM compound, n=6 MRK-740, n=3 MRK-740-NC, read-out: PRDM9-Activity %, Average): 3.76%
Activity % ([1]; PRDM9, 1µM compound, Exp1, Exp2, 1 µM): 11%
activity at 1 µM ([1]; PRDM9, 1µM compound, Exp1, Exp2, read-out: Activity %): 10%
Activity % ([1]; PRDM9, 10µM compound, Exp1, Exp2, 10 µM): 2.5%
activity at 10 µM ([1]; PRDM9, 10µM compound, Exp1, Exp2, read-out: Activity %): 3%
IC50 ([1]; biotinylated H3 (1–25) peptide, balanced conditions, mean ± standard deviation): 80 ± 16 nM
